In article PMC5030144 (Nature chemical biology, 2016):
Where “and” joins values, the source holds several entries; their conditions need not be identical. Equal values may be shown once.

Columns and labels:
RMS3 [1] = target: T1, RMS3 (Pisum sativum, UniProt A0A109QYD3); experiment: Intrinsic tryptophan fluorescence, apparent dissociation coefficient; type: binding; details: apparent Kd from intrinsic fluorescence, mean ± SE of two replicates
T1 sequence (A0A109QYD3 1-267): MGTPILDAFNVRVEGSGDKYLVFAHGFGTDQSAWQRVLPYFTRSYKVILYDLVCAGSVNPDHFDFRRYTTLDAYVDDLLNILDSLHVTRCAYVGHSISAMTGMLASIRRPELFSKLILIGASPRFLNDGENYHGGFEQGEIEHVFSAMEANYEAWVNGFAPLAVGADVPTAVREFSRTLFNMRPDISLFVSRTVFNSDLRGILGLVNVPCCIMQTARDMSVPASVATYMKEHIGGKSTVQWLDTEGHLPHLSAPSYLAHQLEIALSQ

RMS3 [2] = target: T1, RMS3; experiment: Differential scanning fluorimetry; type: binding; details: DSF
RMS3 [3] = target: T1, RMS3; experiment: Competition test with; type: biochemical

Q: With `CC1=C(C)C(OC=C2C(=O)OC3c4ccccc4CC23)OC1=O` (racemic) [(±)-3’-Me-GR24] as the compound, how does the Kd (RMS3 [1]) read?
A: 30.9 ± 5.2 µM

Q: Which Kd (RMS3 [1]) does the source give for `O=C1C=CC(OC=C2C(=O)OC3c4ccccc4CC23)O1` (racemic) [(±)-4’-desmethyl-2’-epi-GR24] here?
A: 296 ± 27.9 µM

Q: What about the “shift in RMS3 melting temperature (destabilization)” value (RMS3 [2]) of the same compound?
A: no shift

Q: Which results are given for `O=C1OC2c3ccccc3CC2/C1=C\O` (racemic) [(±)-ABC]?
A: mode of inhibition of (±)-GC242 hydrolysis (RMS3 [3]; RMS3): competitive inhibitor; Ki (RMS3 [3]; RMS3, competition test with (±)-GC242, mean ± SE of three replicates): 28.8 ± 17.6 µM; Kd (RMS3 [1]): 271 ± 29.8 µM; shift in RMS3 melting temperature (destabilization) (RMS3 [2]): no shift

Q: For `Cc1cc(=O)oc2c(F)c(O)c(F)cc12` [DiFMU, 6,8-difluoro-7-hydroxy-4-methylcoumarin], which Kd (RMS3 [1]; Kd) is on record?
A: 20 µM and 19.9 µM

Q: And the “shift in RMS3 melting temperature (destabilization)” value (RMS3 [2])?
A: small stabilization
